Tests used:
TrkB = target: T1, TrkB (Homo sapiens, UniProt Q16620); assay: TrkB tyrosine kinase assay (33P phosphorylation of polyGluTyr by recombinant enzyme); format: biochemical; details: recombinant kinase domain of human TrkB (amino acids 526-838), PGT substrate, 30 uM ATP
T1 construct: The kinase domain of the human TrkB receptor (amino acids 526-838); His; purchased Invitrogen; host or cells: insect cells
Procedure: The ability of compounds of the present invention to inhibit tyrosine kinase activity of TrkB may be measured using a recombinant enzyme in an assay that measures the ability of compounds to inhibit the phosphorylation of the exogenous substrate, polyGluTyr (PGT, Sigma™, 4:1). The kinase domain of the human TrkB receptor (amino acids 526-838) is expressed in insect cells as a histidine (His)-fusion protein and is commercially available from Invitrogen™. The enzyme assay is performed in a 96-well plate. Test compounds are first dissolved in dimethylsulfoxide (DMSO) and then serially-diluted in a 96-well plate. The serially-diluted compounds are transferred to the 96-well assay plate so that the final concentration of DMSO in the enzyme assay is 1.64%. All assay components are diluted in phosphorylation buffer (20 mm MOPS, 10 mM MgCl2, 1 mM EDTA, 0.015% Brij-35, 0.1 mg/ml BSA, 0.0025% Beta-Mercaptoethanol). The recombinant enzyme is added to the assay plate containing test compound and the reaction is initiated with a substrate solution containing a final concentration of 0.1 mg/ml PGT, 30 uM ATP, and 0.008 mCi/ml ^33P-gammaATP (3000 Ci/mmol) (Perkin Elmer™). After a 1 hour incubation at 30° C., the reaction is terminated with 10% TCA and incubated at 4° C. for 1 hour. The reaction is filtered onto a Unifilter® GF/C™ filter plate (Perkin Elmer™) that has been presoaked with 0.1M NaPyrophosphate. Microscint-20(Perkin Elmer™) is then added to the dried filter plate and the captured ^33P-phosphorylated PGT is quantitated on a microscintillation plate counter (TopCount•NXT™ (Perkin Elmer™)). Inhibition of the kinase enzymatic activity by the test compound is detected by a reduction in scintillation, and the concentration of compound that is required to inhibit the signal by 50% is reported as the IC50 value for the test compound.

TrkA = target: T2, TrkA (Homo sapiens, UniProt P04629); assay: TrkA tyrosine kinase assay (33P phosphorylation of polyGluTyr by recombinant enzyme); format: biochemical; details: recombinant kinase domain of human TrkA, PGT substrate, 30 uM ATP
T2 construct: The kinase domain of the human TrkA receptor is expressed in Sf9 insect cells as a histidine (His)-fusion protein; His; made in house; host or cells: Sf9 insect cells (baculovirus)
From the text: The ability of compounds of the present invention to inhibit tyrosine kinase activity of TrkA may be measured using a recombinant enzyme in an assay that measures the ability of compounds to inhibit the phosphorylation of the exogenous substrate, polyGluTyr (PGT, Sigma™, 4:1). The kinase domain of the human TrkA receptor is expressed in Sf9 insect cells as a histidine (His)-fusion protein using a baculovirus expression system. The protein is purified from the lysates of these cells using an Ni-NTA affinity column. After the recombinant enzyme is purified, it is activated by incubation with cold ATP. The enzyme assay is performed in a 96-well plate. Test compounds are first dissolved in dimethylsulfoxide (DMSO) and then serially-diluted in a 96-well plate. The serially-diluted compounds are transferred to the 96-well assay plate so that the final concentration of DMSO in the enzyme assay is 1.64%. All assay components are diluted in phosphorylation buffer (20 mm MOPS, 10 mM MgCl2, 1 mM EDTA, 0.015% Brij-35, 0.1 mg/ml BSA, 0.0025% Beta-Mercaptoethanol). The recombinant enzyme is added to the assay plate containing test compound and the reaction is initiated with a substrate solution containing a final concentration of 0.1 mg/ml PGT, 30 uM ATP, and 0.008 mCi/ml ^33P-gammaATP (3000 Ci/mmol)(Perkin Elmer™) After a 1 hour incubation at 30° C., the reaction is terminated with 10% TCA and incubated at 4° C. for 1 hour. The reaction is filtered onto a Unifilter® GF/C™ filter plate (Perkin Elmer™) that has been presoaked with 0.1M NaPyrophosphate. Microscint-20 (Perkin Elmer™) is then added to the dried filter plate and the captured ^33P-phosphorylated PGT is quantitated on a microscintillation plate counter (TopCount•NXT™ (Perkin Elmer™)). Inhibition of the kinase enzymatic activity by the test compound is detected by a reduction in scintillation, and the concentration of compound that is required to inhibit the signal by 50% is reported as the IC50 value for the test compound.

T1 sequence (Q16620 510-822): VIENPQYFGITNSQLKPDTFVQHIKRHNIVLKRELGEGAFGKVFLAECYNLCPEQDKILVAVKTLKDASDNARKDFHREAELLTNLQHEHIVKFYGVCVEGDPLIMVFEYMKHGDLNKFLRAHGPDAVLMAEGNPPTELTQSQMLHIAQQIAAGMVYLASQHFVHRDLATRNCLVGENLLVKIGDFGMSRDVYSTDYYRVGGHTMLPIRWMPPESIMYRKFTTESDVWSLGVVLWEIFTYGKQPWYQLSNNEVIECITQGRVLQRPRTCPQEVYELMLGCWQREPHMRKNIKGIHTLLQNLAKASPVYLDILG
T2 sequence (P04629 510-781 limits assumed): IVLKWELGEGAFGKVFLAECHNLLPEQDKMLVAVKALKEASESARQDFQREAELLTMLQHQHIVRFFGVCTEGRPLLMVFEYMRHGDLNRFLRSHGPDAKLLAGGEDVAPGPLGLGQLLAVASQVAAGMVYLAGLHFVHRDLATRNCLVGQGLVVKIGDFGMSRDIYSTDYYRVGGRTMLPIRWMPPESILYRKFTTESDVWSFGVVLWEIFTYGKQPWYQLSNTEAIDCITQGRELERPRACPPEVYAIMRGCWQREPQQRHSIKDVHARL

SMILES | IC50 (TrkB) [µM] | IC50 (TrkA) [µM]
O[C@H]1CC[C@H](Nc2nc(Nc3cc(C4CC4)n[nH]3)c3cccn3n2)CC1 [Compound 38, trans-4-((4-((3-cyclopropyl-1H-pyrazol-5-yl)amino)pyrrolo[2,1-f] [1,2,4]triazin-2-yl)amino) cyclohexanol] | 0.0009 | 0.0005
O=C(CNc1nc(Nc2cc(C3CC3)n[nH]2)c2cccn2n1)Nc1nccs1 [Compound 43, 2-((4-((3-cyclopropyl-1H-pyrazol-5-yl)amino)pyrrolo[2,1-f][1,2,4]triazin-2-yl)amino)-N-1,3-thiazol-2-ylacetamide] | 0.0003 | 0.0003
NC1CCCC(Nc2nc(Nc3cc(C4CC4)n[nH]3)c3cccn3n2)C1 (centres unmarked) [Compound 12, N^2-(3-aminocyclohexyl)-N^4-(3-cyclopropyl-1H-pyrazol-5-yl) pyrrolo[2,1-f][1,2,4]triazine-2,4-diamine] | 0.035 | 0.006
c1cc2c(Nc3cc(C4CC4)n[nH]3)nc(N[C@H]3CCNC3)nn2c1 [Compound 41, N^4-(3-cyclopropyl-1H-pyrazol-5-yl)-N^2-((3S)-3-pyrrolidinyl)pyrrolo [2,1-f][1,2,4]triazine-2,4-diamine] | 0.031 | 0.018
O=C(Nc1nccs1)[C@H](Cc1ccccc1)Nc1nc(Nc2cc(C3CC3)[nH]n2)c2cccn2n1 [Compound 44, (2S)-2-((4-((5-cyclopropyl-1H-pyrazol-3-yl)amino)pyrrolo[2,1-f][1,2,4]triazin-2-yl)amino)-3-phenyl-N-1,3-thiazol-2-ylpropanamide] | 0.002 | 0.001
CC(C)[C@H](CO)NC(=O)[C@H](C)Nc1nc(Nc2cc(C3CC3)n[nH]2)c2cccn2n1 [Compound 49, (2S)-2-((4-((3-cyclopropyl-1H-pyrazol-5-yl)amino)pyrrolo[2,1-f][1,2,4]triazin-2-yl)amino)-N-((1R)-1-(hydroxymethyl)-2-methylpropyl)propanamide] | 0.005 | 0.012
C[C@H](Nc1nc(Nc2cc(C3CC3)n[nH]2)c2cccn2n1)c1ccc(F)cc1 [Compound 2, N^4-(3-cyclopropyl-1H-pyrazol-5-yl)-N^2-((1S)-1-(4-fluorophenyl)ethyl)pyrrolo[2,1-f][1,2,4]triazine-2,4-diamine] | 0.0003 | 0.0001
C[C@H](Nc1nc(Nc2cc(-c3ccccc3)n[nH]2)c2cccn2n1)c1ccc(F)cc1 [Compound 28, N^2-((1S)-1-(4-fluorophenyl)ethyl)-N^4-(3-phenyl-1H-pyrazol-5-yl) pyrrolo[2,1-f][1,2,4]triazine-2,4-diamine] | 0.0007 | 0.0007
CCC(O)CNc1nc(Nc2cc(C3CC3)n[nH]2)c2cccn2n1 (centres unmarked) [Compound 40, 1-((4-((3-cyclopropyl-1H-pyrazol-5-yl)amino)pyrrolo[2,1-f][1,2,4]triazin-2-yl)amino)-2-butanol] | 0.004 | 0.003
Cc1cc(Nc2nc(NC3CCCCC3)nn3cccc23)[nH]n1 [Compound 9, N^2-cyclohexyl-N^4-(5-methyl-1H-pyrazol-3-yl)pyrrolo[2,1-f] [1,2,4]triazine-2,4-diamine] | 0.225 | 0.074

— patent US7605160B2, “Pyrrolotriazine kinase inhibitors” (Bristol-Myers Squibb Company, priority 2006, dated 2009)
